Test results taken from patent publication US11492335B2, “Aryl or heteroaryl triazolone derivatives or salts thereof, or pharmaceutical compositions comprising the same” (YUHAN CORPORATION, priority 2018, dated 2022).
Where a name gives a salt, the structure may show the parent alone. Read-outs that look alike come from different tables or passages of the source.

Experiments:
recombinant human VAP-1 = target: T1, recombinant human VAP-1 (Homo sapiens, UniProt Q16853); test: Activity on recombinant human VAP-1, Amplex Red HRP-coupled hydrogen peroxide assay, benzylamine substrate; assay type: biochemical; settings: recombinant human VAP-1, benzylamine substrate, read-out: Inhibitory Activity (IC50, nM) human VAP-1
T1 construct: purchased R&D systems
T1 sequence (Q16853 1-763): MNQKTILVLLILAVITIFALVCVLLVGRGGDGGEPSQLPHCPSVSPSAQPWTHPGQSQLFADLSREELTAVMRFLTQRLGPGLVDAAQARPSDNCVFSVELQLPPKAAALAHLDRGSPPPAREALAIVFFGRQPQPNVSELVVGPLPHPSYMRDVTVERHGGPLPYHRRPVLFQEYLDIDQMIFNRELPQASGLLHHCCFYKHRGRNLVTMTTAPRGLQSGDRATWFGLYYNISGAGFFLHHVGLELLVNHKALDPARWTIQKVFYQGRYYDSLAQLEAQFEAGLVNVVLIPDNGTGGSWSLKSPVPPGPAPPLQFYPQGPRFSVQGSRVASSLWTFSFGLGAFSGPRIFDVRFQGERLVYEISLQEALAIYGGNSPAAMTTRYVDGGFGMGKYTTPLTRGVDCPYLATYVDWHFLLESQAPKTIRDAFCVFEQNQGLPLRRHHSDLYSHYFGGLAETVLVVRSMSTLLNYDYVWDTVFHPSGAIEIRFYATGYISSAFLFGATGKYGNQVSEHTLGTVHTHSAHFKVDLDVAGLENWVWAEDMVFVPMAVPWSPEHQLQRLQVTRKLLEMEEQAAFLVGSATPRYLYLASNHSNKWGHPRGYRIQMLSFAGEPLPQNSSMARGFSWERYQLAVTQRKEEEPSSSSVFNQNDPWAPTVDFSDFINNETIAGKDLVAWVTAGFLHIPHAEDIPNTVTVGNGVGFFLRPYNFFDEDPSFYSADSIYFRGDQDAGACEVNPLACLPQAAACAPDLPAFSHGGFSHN
Protocol: (§1) The compounds according to the present technology were evaluated in terms of activity on recombinant human VAP-1 (R&D systems) by measuring the level of hydrogen peroxide in horseradish peroxidase (HRP)-coupled reaction using Amplex Red Hydrogen Peroxide Assay Kit (Molecular Probes, Invitrogen, USA). The experiment was carried out at room temperature using benzylamine as a substrate. In the HRP-coupled reaction, hydrogen peroxide oxidation of 10-acetyl-3,7-dihydroxyphenoxazine (Amplex Red reagent) produces resorufin, which is a highly fluorescent compound. Briefly, the test compound was dissolved in dimethyl sulfoxide (DMSO) at a concentration of 20 mM. The dose-response assessment was made by 1:3 serial dilution in DMSO, thereby creating an 8 point curve. The concentration of the upper part was controlled according to the efficacy of the compounds, followed by dilution with a reaction buffer solution to obtain a final DMSO concentration less than 1%. To each well of a 96 black well plate, human VAP-1 purified in 50 mM sodium phosphate buffer solution (pH7.4) was added. The test compounds dissolved in DMSO were incubated with the human VAP-1 enzymes at 37° C. for 30 minutes. After 30-minute incubation, each well is added with a reaction mixture containing 200 uM Amplex Red reagent prepared from 50 mM sodium phosphate buffer solution (pH 7.4), 1 mM benzylamine, and 1 U/mL HRP. Fluorescence intensity was measured at several time points during 1-2 hours using a microplate reader (Flexstation3, Molecular Devices) under the wavelength condition exciting at 544 nm and reading the emission at 590 nm. The inhibitory effect of the compounds was measured as a decrease (%) in the signal rate as compared to the control group without any inhibitor (only diluted DMSO). Data was fixed to a logistic model with four variables and IC50 value was calculated using GraphPad Prism program.

[1] = target: T2, recombinant human DAO (diamine oxidase) (Homo sapiens, UniProt P19801); test: Activity on recombinant human DAO, Amplex Red method, 1 mM putrescine substrate; assay type: biochemical; settings: recombinant human DAO, read-out: Inhibitory Activity (IC50, nM) DAO
T2 construct: purchased R&D systems
T2 sequence (P19801 20-751): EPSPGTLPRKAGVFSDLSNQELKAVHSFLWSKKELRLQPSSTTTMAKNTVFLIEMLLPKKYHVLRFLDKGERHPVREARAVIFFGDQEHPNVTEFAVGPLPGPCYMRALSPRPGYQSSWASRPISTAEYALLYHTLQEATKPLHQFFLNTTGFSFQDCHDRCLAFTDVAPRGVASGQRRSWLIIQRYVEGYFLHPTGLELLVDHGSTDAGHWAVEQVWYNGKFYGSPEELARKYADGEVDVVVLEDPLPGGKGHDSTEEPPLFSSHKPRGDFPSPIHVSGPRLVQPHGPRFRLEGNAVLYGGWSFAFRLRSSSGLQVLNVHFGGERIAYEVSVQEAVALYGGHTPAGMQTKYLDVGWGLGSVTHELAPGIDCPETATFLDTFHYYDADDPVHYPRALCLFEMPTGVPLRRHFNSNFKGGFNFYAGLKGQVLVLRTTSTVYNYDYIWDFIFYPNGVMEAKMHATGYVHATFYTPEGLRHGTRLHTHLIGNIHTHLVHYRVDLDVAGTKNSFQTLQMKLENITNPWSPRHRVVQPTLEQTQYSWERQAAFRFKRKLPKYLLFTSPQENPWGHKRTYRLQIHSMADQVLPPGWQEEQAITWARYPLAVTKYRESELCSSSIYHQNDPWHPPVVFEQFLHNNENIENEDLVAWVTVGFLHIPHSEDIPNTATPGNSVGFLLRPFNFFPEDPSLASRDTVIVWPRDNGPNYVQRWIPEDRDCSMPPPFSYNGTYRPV
Protocol: as §1
In addition, the compounds according to the present technology were evaluated in terms of activity on a recombinant human MAO-A (monoamine oxidase-A, Sigma-Aldrich) and a recombinant human MAO-B (monoamine oxidase-B, Sigma-Aldrich) by using as substrates, 0.5 mM tyramine and 1 mM benzylamine, respectively, with a method similar to the activity evaluation method for recombinant human VAP-1. The compounds according to the present technology were also evaluated in terms of activity on a recombinant human DAO (diamine oxidase, R&D systems) by using as a substrate 1 mM putrescine with a method similar to the activity evaluation method for recombinant human VAP-1.

[2] = 1 mM putrescine, * = between 10 and 100 nM, ** = between 300 and 1000 nM

IC50 (recombinant human VAP-1; 30 min preincubation at 37° C.) [nM] | IC50 [1, 2] [nM] | IC50 (recombinant human VAP-1) [nM] | IC50 ([1]; 1 mM putrescine substrate) [nM] | SMILES
17 | – | – | – | NC/C(=C/F)Cn1ncn(-c2ccc(Br)cc2)c1=O [Example 1, 2-[(2Z)-2-(aminomethyl)-3-fluoroprop-2-en-1-yl]-4-(4-bromophenyl)-2,4-dihydro-3H-1,2,4-triazol-3-one]
3.3 | 1400 | – | – | Cc1cc(-c2cccc(-c3nnn[nH]3)c2)cnc1-n1cnn(C/C(=C/F)CN)c1=O [Example 144, 2-[(2E)-2-(aminomethyl)-3-fluoroprop-2-en-1-yl]-4-{3-methyl-5-[3-(1H-tetrazol-5-yl)phenyl]pyridin-2-yl}-2,4-dihydro-3H-1,2,4-triazol-3-one]
0.62 | 6100 | – | – | Cc1cc(-c2ccc(-c3nnc[nH]3)cc2)cnc1-n1cnn(C/C(=C/F)CN)c1=O [Example 136, 2-[(2E)-2-(aminomethyl)-3-fluoroprop-2-en-1-yl]-4-{3-methyl-5-[4-(4H-1,2,4-triazol-3-yl)phenyl]pyridin-2-yl}-2,4-dihydro-3H-1,2,4-triazol-3-one]
8.2 | 4200 | – | – | Cc1cc(N2CCNCC2)cnc1-n1cnn(C/C(=C/F)CN)c1=O [Example 131, 2-[(2E)-2-(aminomethyl)-3-fluoroprop-2-en-1-yl]-4-[3-methyl-5-(piperazin-1-yl)pyridin-2-yl]-2,4-dihydro-3H-1,2,4-triazol-3-one]
– | – | 1.7 | 1.2 | NC/C(=C\F)Cn1ncn(-c2ncc(-c3ccc4c(c3)NC(=O)C4)s2)c1=O [Example 233, 6-(2-{1-[(2E)-2-(aminomethyl)-3-fluoroprop-2-en-1-yl]-5-oxo-1,5-dihydro-4H-1,2,4-triazol-4-yl}-1,3-thiazol-5-yl)-1,3-dihydro-2H-indol-2-one]
1.2 | < 100 | – | – | Cc1cc(-c2ccc3nonc3c2)ncc1-n1cnn(C/C(=C/F)CN)c1=O [Example 125, 2-[(2E)-2-(aminomethyl)-3-fluoroprop-2-en-1-yl]-4-[6-(2,1,3-benzooxadiazol-5-yl)-4-methylpyridin-3-yl]-2,4-dihydro-3H-1,2,4-triazol-3-one]
45 | 1100 | – | – | Cc1cc(Br)ncc1-n1cnn(C/C(=C/F)CN)c1=O [Example 28, 2-[(2E)-2-(aminomethyl)-3-fluoroprop-2-en-1-yl]-4-(6-bromo-4-methylpyridin-3-yl)-2,4-dihydro-3H-1,2,4-triazol-3-one hydrochloride]
1.3 | < 100 | – | – | NC/C(=C/F)Cn1ncn(-c2cccc(-c3cccc(-c4nnc[nH]4)c3)c2)c1=O [Example 60, 2-[(2Z)-2-(aminomethyl)-3-fluoroprop-2-en-1-yl]-4-[3′-(4H-1,2,4-triazol-3-yl)biphenyl-3-yl]-2,4-dihydro-3H-1,2,4-triazol-3-one]
– | – | 23 | – | NC/C(=C\F)Cn1ncn(-c2cccc(-c3ccc(-c4noc(=O)[nH]4)cc3)n2)c1=O [Example 182, 3-[4-(6-{1-[(2E)-2-(aminomethyl)-3-fluoroprop-2-en-1-yl]-5-oxo-1,5-dihydro-4H-1,2,4-triazol-4-yl}pyridin-2-yl)phenyl]-1,2,4-oxadiazol-5(4H)-one hydrochloride]
0.82 | < 100 | – | – | CC(=O)Nc1nc2cc(-c3cc(C)c(-n4cnn(C/C(=C/F)CN)c4=O)cn3)ccc2s1 [Example 128, N-[5-(5-{1-[(2E)-2-(aminomethyl)-3-fluoroprop-2-en-1-yl]-5-oxo-1,5-dihydro-4H-1,2,4-triazol-4-yl}-4-methylpyridin-2-yl)-1,3-benzothiazol-2-yl]acetamide]
47 | – | – | – | Cc1cc(Br)cnc1-n1cnn(C/C(=C\F)CN)c1=O [Example 31, 2-[(2Z)-2-(aminomethyl)-3-fluoroprop-2-en-1-yl]-4-(5-bromo-3-methylpyridin-2-yl)-2,4-dihydro-3H-1,2,4-triazol-3-one hydrochloride]
31 | – | – | – | Cc1cc(-n2cnn(C/C(=C\F)CN)c2=O)ncc1Br [Example 33, 2-[(2Z)-2-(aminomethyl)-3-fluoroprop-2-en-1-yl]-4-(5-bromo-4-methylpyridin-2-yl)-2,4-dihydro-3H-1,2,4-triazol-3-one hydrochloride]
